# Test results reported in PMC5762315, “Inhibition of polo-like kinase 4 (PLK4): a new therapeutic option for rhabdoid tumors and pediatric medulloblastoma” (Oncotarget, 2017).
# “And” between values parts separate entries of the source, which are not always exact repeats. Equal entries are not always repeated.
# Experiments:
# Assay in all cases: biochemical
# Assay type in all cases: biochemical
# various kinases [1] = target: various kinases (Homo sapiens, UniProt O15075); conditions: DCAMKL1 (DCLK1)
# various kinases [2] = target: various kinases (Homo sapiens, UniProt O60674, V617F); conditions: JAK2 JH1 JH2 V617F
# various kinases [3] = target: various kinases (Homo sapiens, UniProt O75676); conditions: kinase RPS6KA4 (MSK2); ZLYTE
# various kinases [4] = target: various kinases (Homo sapiens, UniProt O96013); conditions: PAK4
# various kinases [5] = target: various kinases (Homo sapiens, UniProt P00533, L861Q); conditions: EGFR (ErbB1) L861Q
# various kinases [6] = target: various kinases (Homo sapiens, UniProt P04626); conditions: ERBB2 (HER2)
# various kinases [7] = target: various kinases (Homo sapiens, UniProt P07949); conditions: kinase RET; ZLYTE
# various kinases [8] = target: various kinases (Homo sapiens, UniProt P10721, V559D); conditions: KIT V559D
# various kinases [9] = target: various kinases (Homo sapiens, UniProt P22607, K650E); conditions: FGFR3 K650E
# various kinases [10] = target: various kinases (Homo sapiens, UniProt P23458); conditions: JAK1
# various kinases [11] = target: various kinases (Homo sapiens, UniProt P27448); conditions: MARK3
# various kinases [12] = target: various kinases (Homo sapiens, UniProt P34947); conditions: GRK5
# various kinases [13] = target: various kinases (Homo sapiens, UniProt P35916); conditions: FLT4 (VEGFR3)
# various kinases [14] = target: various kinases (Homo sapiens, UniProt P42345); conditions: FRAP1 (mTOR)
# various kinases [15] = target: various kinases (Homo sapiens, UniProt P42685); conditions: FRK (PTK5)
# various kinases [16] = target: various kinases (Homo sapiens, UniProt P49137); conditions: MAPKAPK2
# various kinases [17] = target: various kinases (Homo sapiens, UniProt P49674); conditions: CSNK1E (CK1 epsilon)
# various kinases [18] = target: various kinases (Homo sapiens, UniProt Q00537); conditions: CDK17/cyclin Y
# various kinases [19] = target: T1, various kinases (Homo sapiens, UniProt Q02156); conditions: kinase PRKCE (PKC epsilon); ZLYTE
# T1 sequence (Q02156 1-737): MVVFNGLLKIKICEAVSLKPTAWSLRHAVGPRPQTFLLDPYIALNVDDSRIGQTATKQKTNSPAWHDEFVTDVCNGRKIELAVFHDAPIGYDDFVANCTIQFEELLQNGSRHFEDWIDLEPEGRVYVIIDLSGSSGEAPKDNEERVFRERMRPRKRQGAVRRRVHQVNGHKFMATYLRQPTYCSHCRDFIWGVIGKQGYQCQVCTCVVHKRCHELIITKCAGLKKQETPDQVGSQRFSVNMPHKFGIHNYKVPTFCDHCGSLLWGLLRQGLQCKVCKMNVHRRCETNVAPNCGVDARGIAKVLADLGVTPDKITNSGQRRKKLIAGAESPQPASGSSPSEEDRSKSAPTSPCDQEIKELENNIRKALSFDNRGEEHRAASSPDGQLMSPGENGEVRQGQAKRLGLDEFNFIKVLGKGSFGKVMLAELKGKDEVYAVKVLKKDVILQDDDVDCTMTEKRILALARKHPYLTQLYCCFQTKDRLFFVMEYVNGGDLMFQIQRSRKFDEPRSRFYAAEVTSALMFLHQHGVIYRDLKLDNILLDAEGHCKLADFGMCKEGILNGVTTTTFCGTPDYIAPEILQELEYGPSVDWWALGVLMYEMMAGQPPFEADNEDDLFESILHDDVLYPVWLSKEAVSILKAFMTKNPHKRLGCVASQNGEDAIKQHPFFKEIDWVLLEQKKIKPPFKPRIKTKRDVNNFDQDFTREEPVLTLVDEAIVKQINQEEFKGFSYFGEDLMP
# various kinases [20] = target: various kinases (Homo sapiens, UniProt Q13177); conditions: PAK2 (PAK65)
# various kinases [21] = target: various kinases (Homo sapiens, UniProt Q15418); conditions: kinase RPS6KA1 (RSK1); ZLYTE
# various kinases [22] = target: various kinases (Homo sapiens, UniProt Q15759); conditions: MAPK11 (p38 beta)
# various kinases [23] = target: various kinases (Homo sapiens, UniProt Q86Z02); conditions: HIPK1 (Myak)
# various kinases [24] = target: various kinases (Homo sapiens, UniProt Q8N752); conditions: CSNK1A1L
# various kinases [25] = target: various kinases (Homo sapiens, UniProt Q8NE63); conditions: HIPK4
# various kinases [26] = target: various kinases (Homo sapiens, UniProt Q8WTQ7); conditions: GRK7
# various kinases [27] = target: various kinases (Homo sapiens, UniProt Q9H422); conditions: HIPK3 (YAK1)
# various kinases [28] = target: various kinases (Homo sapiens, UniProt Q9NWZ3); conditions: IRAK4
# various kinases [29] = target: various kinases (Homo sapiens, UniProt Q9NYY3); conditions: kinase PLK2; ZLYTE
# Wherever % Inhibition Average is given: test concentration or dose not given here.
# Wherever % Inhibition Duplicate #1 is given: test concentration or dose not given here.
# Wherever % Inhibition Duplicate #2 is given: test concentration or dose not given here.
# Chain of various kinases (Homo sapiens, UniProt Q9NYY3) (Q9NYY3 whole entry): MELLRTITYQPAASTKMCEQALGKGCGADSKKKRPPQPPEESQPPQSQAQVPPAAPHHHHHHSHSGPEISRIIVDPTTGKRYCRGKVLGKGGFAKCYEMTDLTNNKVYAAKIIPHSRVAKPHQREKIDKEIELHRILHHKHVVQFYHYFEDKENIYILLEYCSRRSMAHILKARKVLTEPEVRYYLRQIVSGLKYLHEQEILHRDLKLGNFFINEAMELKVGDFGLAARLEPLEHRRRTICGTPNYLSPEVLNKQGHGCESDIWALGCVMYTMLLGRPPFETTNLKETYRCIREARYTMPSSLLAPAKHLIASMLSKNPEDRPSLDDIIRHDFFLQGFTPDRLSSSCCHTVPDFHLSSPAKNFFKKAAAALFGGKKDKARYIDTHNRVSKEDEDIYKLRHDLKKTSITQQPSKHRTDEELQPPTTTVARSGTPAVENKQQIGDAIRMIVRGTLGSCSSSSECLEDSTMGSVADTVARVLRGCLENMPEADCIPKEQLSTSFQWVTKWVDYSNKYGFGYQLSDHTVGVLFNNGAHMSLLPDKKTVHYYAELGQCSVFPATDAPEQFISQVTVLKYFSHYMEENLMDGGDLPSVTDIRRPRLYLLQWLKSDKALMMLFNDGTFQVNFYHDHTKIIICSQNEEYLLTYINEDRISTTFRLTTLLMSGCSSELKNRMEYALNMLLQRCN
# Chain of various kinases (Homo sapiens, UniProt Q15418) (Q15418 whole entry): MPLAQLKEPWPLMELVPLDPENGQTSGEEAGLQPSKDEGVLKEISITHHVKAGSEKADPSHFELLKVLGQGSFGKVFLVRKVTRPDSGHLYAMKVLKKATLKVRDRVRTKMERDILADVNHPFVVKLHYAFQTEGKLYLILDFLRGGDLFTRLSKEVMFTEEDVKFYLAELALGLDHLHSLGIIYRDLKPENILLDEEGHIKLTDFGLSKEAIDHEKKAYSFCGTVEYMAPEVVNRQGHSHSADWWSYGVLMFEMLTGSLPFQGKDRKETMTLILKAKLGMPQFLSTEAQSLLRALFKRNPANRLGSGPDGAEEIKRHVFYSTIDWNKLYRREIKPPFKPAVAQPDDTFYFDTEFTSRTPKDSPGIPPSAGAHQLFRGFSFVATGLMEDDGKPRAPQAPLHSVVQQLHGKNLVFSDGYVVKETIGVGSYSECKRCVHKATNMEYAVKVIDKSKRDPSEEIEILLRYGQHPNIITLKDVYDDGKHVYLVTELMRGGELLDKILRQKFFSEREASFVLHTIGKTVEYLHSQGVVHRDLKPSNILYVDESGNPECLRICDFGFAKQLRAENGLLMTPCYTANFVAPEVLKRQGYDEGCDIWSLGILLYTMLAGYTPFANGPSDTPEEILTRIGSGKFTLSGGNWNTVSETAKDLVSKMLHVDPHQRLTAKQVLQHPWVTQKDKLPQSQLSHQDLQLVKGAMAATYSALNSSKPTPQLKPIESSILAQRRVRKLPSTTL
# Chain of various kinases (Homo sapiens, UniProt P07949) (P07949 29-1114): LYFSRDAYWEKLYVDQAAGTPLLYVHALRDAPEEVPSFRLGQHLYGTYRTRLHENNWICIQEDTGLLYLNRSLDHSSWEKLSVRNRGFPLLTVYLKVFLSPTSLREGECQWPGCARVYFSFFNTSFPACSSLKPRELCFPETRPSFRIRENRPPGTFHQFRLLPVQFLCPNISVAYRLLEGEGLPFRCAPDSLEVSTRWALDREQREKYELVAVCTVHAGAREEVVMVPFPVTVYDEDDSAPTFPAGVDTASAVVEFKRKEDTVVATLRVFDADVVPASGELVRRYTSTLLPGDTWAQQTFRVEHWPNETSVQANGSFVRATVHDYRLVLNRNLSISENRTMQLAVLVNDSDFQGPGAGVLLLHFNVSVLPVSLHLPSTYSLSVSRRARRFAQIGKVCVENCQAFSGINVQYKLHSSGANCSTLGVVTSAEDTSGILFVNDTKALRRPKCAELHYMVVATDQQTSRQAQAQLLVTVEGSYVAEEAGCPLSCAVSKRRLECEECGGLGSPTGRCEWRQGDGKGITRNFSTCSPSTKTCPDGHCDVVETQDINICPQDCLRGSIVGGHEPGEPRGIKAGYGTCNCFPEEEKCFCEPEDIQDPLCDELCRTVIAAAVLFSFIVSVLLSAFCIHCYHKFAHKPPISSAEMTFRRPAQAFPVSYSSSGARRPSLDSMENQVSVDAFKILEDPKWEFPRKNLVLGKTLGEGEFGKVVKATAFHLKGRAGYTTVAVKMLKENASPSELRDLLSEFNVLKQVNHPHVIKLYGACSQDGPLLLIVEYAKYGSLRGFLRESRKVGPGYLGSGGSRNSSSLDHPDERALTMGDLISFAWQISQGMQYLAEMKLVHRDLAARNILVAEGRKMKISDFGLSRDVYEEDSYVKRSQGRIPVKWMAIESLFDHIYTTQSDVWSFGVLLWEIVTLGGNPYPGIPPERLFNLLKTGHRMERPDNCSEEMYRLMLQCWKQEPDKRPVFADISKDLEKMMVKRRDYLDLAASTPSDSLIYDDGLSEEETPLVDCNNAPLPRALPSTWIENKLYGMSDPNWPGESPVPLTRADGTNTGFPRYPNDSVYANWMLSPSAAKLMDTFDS
# Chain of various kinases (Homo sapiens, UniProt O75676) (O75676 whole entry): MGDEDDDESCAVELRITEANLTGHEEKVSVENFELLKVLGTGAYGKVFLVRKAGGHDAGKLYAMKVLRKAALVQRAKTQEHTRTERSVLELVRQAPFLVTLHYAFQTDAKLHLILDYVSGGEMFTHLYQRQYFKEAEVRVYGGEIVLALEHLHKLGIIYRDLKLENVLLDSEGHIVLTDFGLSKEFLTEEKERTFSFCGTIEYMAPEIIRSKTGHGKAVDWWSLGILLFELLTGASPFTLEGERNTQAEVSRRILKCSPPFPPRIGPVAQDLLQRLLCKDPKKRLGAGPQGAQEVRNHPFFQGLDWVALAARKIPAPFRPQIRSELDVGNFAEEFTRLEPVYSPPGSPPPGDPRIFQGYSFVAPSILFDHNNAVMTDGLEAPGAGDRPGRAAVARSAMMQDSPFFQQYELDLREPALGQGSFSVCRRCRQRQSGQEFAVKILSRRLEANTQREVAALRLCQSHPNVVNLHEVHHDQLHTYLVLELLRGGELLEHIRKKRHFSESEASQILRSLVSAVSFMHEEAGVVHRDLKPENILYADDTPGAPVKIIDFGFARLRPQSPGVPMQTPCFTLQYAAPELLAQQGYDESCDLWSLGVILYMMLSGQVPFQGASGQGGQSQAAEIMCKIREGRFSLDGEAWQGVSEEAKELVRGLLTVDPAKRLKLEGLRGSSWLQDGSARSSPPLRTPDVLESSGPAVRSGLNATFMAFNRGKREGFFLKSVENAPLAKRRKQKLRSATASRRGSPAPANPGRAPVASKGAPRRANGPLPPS
# Chain of various kinases (Homo sapiens, UniProt P22607, K650E) (P22607 23-806 K650E): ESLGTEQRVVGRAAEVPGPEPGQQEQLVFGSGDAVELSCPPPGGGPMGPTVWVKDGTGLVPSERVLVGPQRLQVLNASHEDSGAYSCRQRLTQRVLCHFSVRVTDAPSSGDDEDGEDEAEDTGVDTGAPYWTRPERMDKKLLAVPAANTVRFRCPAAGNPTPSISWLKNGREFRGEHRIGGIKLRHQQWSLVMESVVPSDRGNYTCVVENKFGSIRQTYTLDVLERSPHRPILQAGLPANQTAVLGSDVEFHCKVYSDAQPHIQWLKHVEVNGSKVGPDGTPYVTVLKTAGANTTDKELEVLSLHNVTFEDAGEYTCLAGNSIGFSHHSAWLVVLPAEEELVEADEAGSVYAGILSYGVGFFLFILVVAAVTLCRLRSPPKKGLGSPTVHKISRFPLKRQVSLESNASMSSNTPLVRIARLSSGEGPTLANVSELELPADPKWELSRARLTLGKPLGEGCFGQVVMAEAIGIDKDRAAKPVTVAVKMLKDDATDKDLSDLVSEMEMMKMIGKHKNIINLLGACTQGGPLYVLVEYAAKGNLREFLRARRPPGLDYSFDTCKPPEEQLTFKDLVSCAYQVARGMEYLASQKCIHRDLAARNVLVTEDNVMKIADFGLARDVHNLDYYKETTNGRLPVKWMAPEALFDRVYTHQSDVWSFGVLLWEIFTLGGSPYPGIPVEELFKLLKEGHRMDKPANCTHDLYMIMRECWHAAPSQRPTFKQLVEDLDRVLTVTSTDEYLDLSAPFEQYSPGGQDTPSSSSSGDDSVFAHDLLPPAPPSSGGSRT
# Chain of various kinases (Homo sapiens, UniProt Q9NWZ3) (Q9NWZ3 whole entry): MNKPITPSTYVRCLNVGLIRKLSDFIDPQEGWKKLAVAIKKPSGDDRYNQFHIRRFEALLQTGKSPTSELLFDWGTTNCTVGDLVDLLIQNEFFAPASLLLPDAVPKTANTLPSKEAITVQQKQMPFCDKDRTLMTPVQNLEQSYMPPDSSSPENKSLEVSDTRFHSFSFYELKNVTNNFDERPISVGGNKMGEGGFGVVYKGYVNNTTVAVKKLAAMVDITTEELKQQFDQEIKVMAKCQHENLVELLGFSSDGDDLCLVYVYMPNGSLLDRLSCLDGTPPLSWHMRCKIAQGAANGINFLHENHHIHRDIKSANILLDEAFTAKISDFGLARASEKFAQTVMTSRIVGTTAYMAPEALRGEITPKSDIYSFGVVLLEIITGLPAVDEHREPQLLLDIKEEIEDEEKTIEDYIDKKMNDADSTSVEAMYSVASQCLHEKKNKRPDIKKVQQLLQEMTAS
# Chain of various kinases (Homo sapiens, UniProt Q00537) (Q00537 whole entry): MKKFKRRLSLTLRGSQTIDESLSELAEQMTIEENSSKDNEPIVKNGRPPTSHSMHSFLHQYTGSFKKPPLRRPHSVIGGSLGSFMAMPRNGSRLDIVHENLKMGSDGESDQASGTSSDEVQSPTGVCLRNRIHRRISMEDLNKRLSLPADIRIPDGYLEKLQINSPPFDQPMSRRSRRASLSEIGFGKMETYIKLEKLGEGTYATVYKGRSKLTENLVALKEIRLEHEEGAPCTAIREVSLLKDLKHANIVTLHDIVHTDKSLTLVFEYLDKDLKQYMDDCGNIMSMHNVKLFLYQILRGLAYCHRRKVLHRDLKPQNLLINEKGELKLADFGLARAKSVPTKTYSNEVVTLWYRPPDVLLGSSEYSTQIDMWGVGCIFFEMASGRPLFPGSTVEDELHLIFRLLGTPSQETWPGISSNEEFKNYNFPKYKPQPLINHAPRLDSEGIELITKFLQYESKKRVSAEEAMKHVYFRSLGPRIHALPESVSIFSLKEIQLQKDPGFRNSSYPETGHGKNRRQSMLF
smiles,measurement,setting,value
COc1ccc2c(c1)[C@]1(C[C@H]1c1ccc3c(/C=C/c4ccc(CN5C[C@@H](C)O[C@@H](C)C5)cc4)n[nH]c3c1)C(=O)N2 [CFI-400945],% Inhibition,various kinases [1],-2%
same,% Inhibition,various kinases [2],8% and 9%
same,% Inhibition Average,various kinases [3],0%
same,% Inhibition Duplicate #1,various kinases [3],-2%
same,% Inhibition Duplicate #2,various kinases [3],3%
same,% Inhibition,various kinases [4],10% and 9%
same,% Inhibition,various kinases [5],3% and 0%
same,% Inhibition,various kinases [6],-2% and 1%
same,% Inhibition Average,various kinases [7],16%
same,% Inhibition Duplicate #1,various kinases [7],14%
same,% Inhibition Duplicate #2,various kinases [7],18%
same,% Inhibition,various kinases [8],9% and 10%
same,% Inhibition,various kinases [9],38% and 44%
same,% Inhibition,various kinases [10],1% and 0%
same,% Inhibition,various kinases [11],9% and 19%
same,% Inhibition,various kinases [12],5% and 3%
same,% Inhibition,various kinases [13],6% and 8%
same,% Inhibition,various kinases [14],2% and 5%
same,% Inhibition,various kinases [15],8% and 7%
same,% Inhibition,various kinases [16],15% and 12%
same,% Inhibition,various kinases [17],7% and 6%
same,% Inhibition,various kinases [18],-1% and 8%
same,% Inhibition Average,various kinases [19],-2%
same,% Inhibition Duplicate #1,various kinases [19],-5%
same,% Inhibition Duplicate #2,various kinases [19],1%
same,% Inhibition,various kinases [20],17% and 8%
same,% Inhibition Average,various kinases [21],7%
same,% Inhibition Duplicate #1,various kinases [21],7%
same,% Inhibition Duplicate #2,various kinases [21],6%
same,% Inhibition,various kinases [22],2% and 5%
same,% Inhibition,various kinases [23],0%
same,% Inhibition,various kinases [24],2% and 1%
same,% Inhibition,various kinases [25],-1% and 2%
same,% Inhibition,various kinases [26],13% and 12%
same,% Inhibition,various kinases [27],2% and 3%
same,% Inhibition,various kinases [28],0% and -3%
same,% Inhibition Average,various kinases [29],4%
same,% Inhibition Duplicate #1,various kinases [29],4%
same,% Inhibition Duplicate #2,various kinases [29],4%
